Laboratory results taken from patent US8765820B2, “Tranylcypromine derivatives as inhibitors of histone demethylases LSD1 and/or LSD2” (Universita Degli Studi di Roma “La Sapienza”, priority 2010, dated 2014).
Counter-ions that a name gives are not always drawn. Like-named read-outs stand apart in the source and are kept apart here.

Key:
[1] = biological target: Human recombinant LSD1/CoREST (Homo sapiens (Human), UniProt O60341); experiment: LSD1 inhibition, peroxidase-coupled assay with histone H3 peptide mono-methylated at Lys4; format: biochemical
Mouse recombinant LSD2 = Mouse recombinant LSD2 (Mus musculus (Mouse), UniProt Q8CIG3); experiment: LSD2 inhibition, peroxidase-coupled assay with histone H3 peptide di-methylated at Lys4; format: biochemical; settings: for Ki: pH 8.0, steady-state competition experiments, errors within 30%
Chain of Mouse recombinant LSD2 (Q8CIG3 whole entry): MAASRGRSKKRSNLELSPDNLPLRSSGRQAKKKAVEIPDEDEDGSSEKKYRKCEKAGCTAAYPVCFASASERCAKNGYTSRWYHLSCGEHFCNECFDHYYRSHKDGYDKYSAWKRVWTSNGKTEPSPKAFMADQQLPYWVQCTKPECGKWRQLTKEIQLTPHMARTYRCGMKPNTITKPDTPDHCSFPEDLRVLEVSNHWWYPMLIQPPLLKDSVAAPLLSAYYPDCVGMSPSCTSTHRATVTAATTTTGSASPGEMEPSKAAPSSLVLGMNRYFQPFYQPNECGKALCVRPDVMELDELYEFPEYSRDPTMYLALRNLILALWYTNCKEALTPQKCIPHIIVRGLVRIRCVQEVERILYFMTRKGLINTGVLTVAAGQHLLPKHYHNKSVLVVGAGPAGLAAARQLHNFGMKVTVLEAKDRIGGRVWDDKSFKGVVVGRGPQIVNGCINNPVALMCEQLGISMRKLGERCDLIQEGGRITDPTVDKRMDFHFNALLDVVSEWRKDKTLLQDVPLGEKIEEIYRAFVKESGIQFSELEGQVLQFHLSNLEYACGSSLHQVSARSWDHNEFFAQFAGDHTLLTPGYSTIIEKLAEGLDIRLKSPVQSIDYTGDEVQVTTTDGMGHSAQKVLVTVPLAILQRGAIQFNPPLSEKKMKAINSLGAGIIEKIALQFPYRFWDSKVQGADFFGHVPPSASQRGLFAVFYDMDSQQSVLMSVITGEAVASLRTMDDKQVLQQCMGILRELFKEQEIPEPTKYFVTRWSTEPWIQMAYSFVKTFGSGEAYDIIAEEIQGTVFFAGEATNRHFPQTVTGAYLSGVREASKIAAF

Human recombinant MAO B = Human recombinant MAO B (Homo sapiens (Human), UniProt P27338); experiment: MAO B inhibition, peroxidase-coupled assay with benzylamine as substrate; format: biochemical; settings: for MAO B Ki: 25° C., pH 7.5, no inhibition = no detectable inhibition at inhibitor saturated solutions
Chain of Human recombinant MAO B (P27338 whole entry): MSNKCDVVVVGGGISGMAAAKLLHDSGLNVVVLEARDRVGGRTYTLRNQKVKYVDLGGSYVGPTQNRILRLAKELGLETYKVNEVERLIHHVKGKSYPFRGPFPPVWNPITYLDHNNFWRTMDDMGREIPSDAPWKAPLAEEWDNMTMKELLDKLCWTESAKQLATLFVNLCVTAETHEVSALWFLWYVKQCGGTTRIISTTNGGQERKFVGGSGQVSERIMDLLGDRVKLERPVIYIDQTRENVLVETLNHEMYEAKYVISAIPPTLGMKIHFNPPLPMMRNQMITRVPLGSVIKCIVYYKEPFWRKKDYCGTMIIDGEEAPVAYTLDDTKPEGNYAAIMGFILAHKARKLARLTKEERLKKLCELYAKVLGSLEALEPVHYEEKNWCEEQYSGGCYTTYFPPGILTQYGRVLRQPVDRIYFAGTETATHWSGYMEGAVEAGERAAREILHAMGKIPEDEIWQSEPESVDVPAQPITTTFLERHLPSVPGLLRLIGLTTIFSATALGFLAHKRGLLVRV

NB4 cells = settings: RA 10 nM in the absence of 6e
Human recombinant MAO A = Human recombinant MAO A (Homo sapiens (Human), UniProt P21397); experiment: MAO A inhibition, peroxidase-coupled assay with kynuramine as substrate; format: biochemical
Chain of Human recombinant MAO A (P21397 whole entry, looked up): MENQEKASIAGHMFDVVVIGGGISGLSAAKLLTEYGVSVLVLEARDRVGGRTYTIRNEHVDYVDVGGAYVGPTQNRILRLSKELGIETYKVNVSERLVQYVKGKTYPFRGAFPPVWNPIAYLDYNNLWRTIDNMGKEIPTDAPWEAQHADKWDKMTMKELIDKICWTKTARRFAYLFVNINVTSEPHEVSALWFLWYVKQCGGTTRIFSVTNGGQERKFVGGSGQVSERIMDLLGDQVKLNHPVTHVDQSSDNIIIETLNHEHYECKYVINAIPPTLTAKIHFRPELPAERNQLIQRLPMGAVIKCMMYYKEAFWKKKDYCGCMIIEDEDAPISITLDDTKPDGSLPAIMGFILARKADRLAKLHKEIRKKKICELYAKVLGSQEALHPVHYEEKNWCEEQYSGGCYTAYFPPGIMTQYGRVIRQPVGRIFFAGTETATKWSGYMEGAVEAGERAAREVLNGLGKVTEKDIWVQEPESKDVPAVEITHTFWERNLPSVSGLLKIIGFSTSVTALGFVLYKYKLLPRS

Compound | LSD2 inhibition (Mouse recombinant LSD2) | MAO A inhibition (Human recombinant MAO A) | MAO B inhibition (Human recombinant MAO B) | also measured
Cl.N[C@@H]1C[C@H]1c1ccc(NC(=O)CCCCCCC(=O)NO)cc1 (relative stereo) [Compound 9, trans N^1-(4-(2-aminocyclopropyl)phenyl)-N^8-hydroxyoctanediamide] |  |  |  | LSD1 inhibition ([1]; 25° C., 50 mM Hepes/NaOH pH 7.5, max inhibitor concentration 1 mM or saturated solution): +; LSD2 inhibition (Mouse recombinant LSD2; 25° C., 50 mM Hepes/NaOH pH 8.0, max inhibitor concentration 1 mM or saturated solution): +; MAO B inhibition (Human recombinant MAO B; 50 mM Hepes/NaOH pH 7.5, 0.5% reduced Triton X-100, max inhibitor concentration 1 mM or saturated solution): +
N[C@@H]1C[C@H]1c1ccc(NC(=O)OCc2ccccc2)cc1 (relative stereo) [Compound 5a, trans benzyl 4-(2-aminocyclopropyl)phenylcarbamate] |  |  |  | Ki (Mouse recombinant LSD2; 25° C.): 20 µM
CC(C)C(NC(=O)OCc1ccccc1)C(=O)Nc1ccc([C@@H]2C[C@H]2N)cc1 (relative stereo) (as salt: hydrochloride) [Compound 6a, trans benzyl 1-(4-(2-aminocyclopropyl)phenylamino)-3-methyl-1-oxobutan-2-ylcarbamate] |  |  |  | melting point: 168 to 170 °C
CC1=C(/C=C/C(C)=C/C=C/C(C)=C/C(=O)O)C(C)(C)CCC1 [RA, retinoic acid] |  |  |  | differentiating effect of RA alone (NB4 cells): almost totally ineffective
CC(C)C(NC(=O)OCc1ccccc1)C(=O)Nc1ccc([C@@H]2C[C@H]2N)cc1 (relative stereo) [Compound 6a, trans benzyl 1-(4-(2-aminocyclopropyl)phenylamino)-3-methyl-1-oxobutan-2-ylcarbamate] | + | + | − | LSD1 inhibition [1]: +
trans benzyl 1-(4-(2- aminocycylpropyl)phenylamino)-3- (napththalen-1-yl)-1-oxopropan-2- ylcarbamate [Compound 6j] | + | + | − | LSD1 inhibition [1]: +
Cl.NC1CC1c1ccc(NC(=O)C(Cc2ccccc2)NC(=O)NCc2ccccc2)cc1 (stereo not drawn) [Compound 16, trans N-(4-(2-aminocyclopropyl)phenyl)-2-(3-benzylureido)-3-phenylpropanamide] | + | + | + | melting point: 153 to 155 °C
CN(C(=O)C(Cc1ccccc1)NC(=O)OCc1ccccc1)c1ccc(C2CC2N)cc1.Cl (stereo not drawn) [Compound 12, trans benzyl 1-((4-(2-aminocyclopropyl)phenyl)(methyl)amino)-1-oxo-3-phenylpropan-2-ylcarbamate] | + | + | − | MAO B Ki (Human recombinant MAO B): no inhibition^d
Cl.NC1CC1c1ccc(NC(=O)C(Cc2ccccc2)NC(=O)OCc2ccccc2)cc1 (stereo not drawn) [Compound 8, cis benzyl 1-(4-(2-aminocyclopropyl)phenylamino)-1-oxo-3-phenylpropan-2-ylcarbamate] |  |  | − | MAO B Ki (Human recombinant MAO B): no inhibition^d
CC(C)CC(NC(=O)OCc1ccccc1)C(=O)Nc1ccc([C@@H]2C[C@H]2N)cc1 (relative stereo) (as salt: hydrochloride) [Compound 6b, trans benzyl 1-(4-(2-aminocyclopropyl)phenylamino)-4-methyl-1-oxopentan-2-ylcarbamate] |  |  |  | melting point: 158 to 160 °C
N[C@@H]1C[C@H]1c1ccc(NC(=O)C(Cc2ccccc2)NC(=O)OCc2ccccc2)cc1 (relative stereo) [Compound 6e, trans benzyl 1-(4-(2-aminocyclopropyl)phenylamino)-1-oxo-3-phenylpropan-2-ylcarbamate] |  |  |  | MAO B Ki (Human recombinant MAO B): no inhibition^d
CC(C)CC(NC(=O)OCc1ccccc1)C(=O)Nc1ccc([C@@H]2C[C@H]2N)cc1 (relative stereo) [Compound 6b, trans benzyl 1-(4-(2-aminocyclopropyl)phenylamino)-4-methyl-1-oxopentan-2-ylcarbamate] | + | + | − | LSD1 inhibition [1]: +
Cl.NC1CC1c1ccc(NC(=O)C(Cc2ccccc2)NC(=O)OCc2ccc(Br)cc2)cc1 (stereo not drawn) [Compound 7, trans 4-bromobenzyl 1-(4-(2-aminocyclopropyl)phenylamino)-1-oxo-3-phenylpropan-2-ylcarbamate] |  |  | − | MAO B Ki (Human recombinant MAO B): no inhibition^d; melting point: 220 to 222 °C
N[C@@H]1C[C@H]1c1ccc(NC(=O)c2ccccc2)cc1 (relative stereo) [Compound 5b, trans N-(4-(2-aminocyclopropyl)phenyl)benzamide] |  |  |  | Ki (Mouse recombinant LSD2; 25° C.): 61 µM
